What all share (type): in vivo
Experiment [1] concerns Spodoptera littoralis (Egyptian cotton leaf worm). Put plainly: Spodoptera littoralis larvicide L1, feeding/contact, cotton leaf discs. The settings on record: single compound. The text has this: (§1) The action to be expected E for a given active ingredient combination obeys the so-called COLBY formula and can be calculated as follows (COLBY, S.R. “Calculating synergistic and antagonistic responses of herbicide combination”. Weeds, Vol. 15, pages 20-22; 1967):
(§2) ppm=milligrams of active ingredient (=a.i.) per liter of spray mixture X=% action by active ingredient A) using p ppm of active ingredient Y=% action by active ingredient B) using q ppm of active ingredient.
(§3) According to COLBY, the expected (additive) action of active ingredients A)+B) using p+q ppm of active ingredient is
(§4) If the action actually observed (O) is greater than the expected action (E), then the action of the combination is super-additive, i.e. there is a synergistic effect. In mathematical terms the synergism factor SF corresponds to O/E. In the agricultural practice an SF of ≧1.2 indicates significant improvement over the purely complementary addition of activities (expected activity), while an SF of ≦0.9 in the practical application routine signals a loss of activity compared to the expected activity.
Spodoptera Littoralis (Egyptian Cotton Leaf Worm)
(Larvicide L1, Feeding/Contact)
Cotton leaf discs are placed on agar in Petri dishes and sprayed with test solutions in an application chamber. After drying, the leaf discs are infested with 10 L1 larvae. The samples are checked for mortality 5 days after treatment. 3 replicates per treatment were evaluated. (1 PPM=1 mg l^−1)

Experiment [2] has as its system Heliothis virescens (tobacco budworm). The experiment in a line: Heliothis virescens ovo-larvicide, feeding/contact, eggs on filter paper in Petri dishes. The settings on record: for AVERAGE DEAD IN % (EGGS) / AVERAGE DEAD IN % (LARVAE): single compound, 7 days; for activity on eggs: egg mortality, 7 days incubation.
Text: as §1, §2, §3, §4
Heliothis Virescens (Tobacco Budworm):
(Ovo-Larvicide, Feeding/Contact)
30-35 fresh eggs (0-24 h old), deposited on filter paper, are placed in Petri dishes on top of a layer of artificial diet and 0.8 ml of diluted test solutions are pipetted onto them. After an incubation period of 7 days, samples are checked for egg and larval mortality. 3 replicates per treatment were evaluated.

Experiment [3] shares this test system. The experiment in a line: Heliothis virescens eggs in 24-well microtiter plate on artificial diet, larval mortality. The settings on record: Heliothis virescens, 96 h, read-out: AVERAGE DEAD IN %.
Text: as §1, §2, §3, §4
Heliothis Virescens (Tobacco Budworm)
Eggs (0-24 h old) are placed in 24-well microtiter plate on artificial diet and treated with test solutions (DMSO) by pipetting. After an incubation period of 4 days, samples are checked for larval mortality.

Experiment [4] has as its system Tetranychus urticae (two spotted spider mite). Put plainly: Tetranychus urticae contact/feeding activity on bean plants, adult mortality.
Text: as §1, §2, §3, §4
Tetranychus Urticae (Two Spotted Spider Mite)
(Contact/Feeding Activity)
Bean plants are infested with mite populations of mixed ages. 1 day after infestation, plants are treated in a spray chamber with diluted test solutions. 1 and 8 days later, samples are checked for adult mortality. 2 replicates per treatment were evaluated.

The mark [5] stands for this setting: single compound at 0.025 ppm AI.

The structures appear in SMILES notation. Values joined by “and” are separate entries in the source; they are usually repeats but may differ in a detail not shown here. Equal values may be shown once. Read-outs that look alike come from different tables or passages of the source.

Take `CC1(C)[C@H](C(=O)O[C@H](C#N)c2cccc(Oc3ccccc3)c2)[C@@H]1/C=C(\Cl)C(F)(F)F` (racemic) [Lambda Cyhalothrin, lambda-cyhalothrin]: the “AVERAGE DEAD IN % AFTER 5 DAYS” value in experiment [1] (0.05 PPM AI) is 10% and 20%; in experiment [1] (0.05 ppm AI) it was 20%; in experiment [1] (0.1 ppm AI), 37%; in experiment [1] (0.2 ppm AI), 57%. Also, the “AVERAGE DEAD IN % (EGGS)” value in experiment [2] (0.05 ppm AI) is listed as 0%; in experiment [2] (0.1 ppm AI), 17%; in experiment [2] (0.2 ppm AI), 50%. The “AVERAGE DEAD IN % (LARVAE)” value in experiment [2] (0.05 ppm AI, larvae) came to 33%; in experiment [2] (0.1 ppm AI, larvae), 100%; in experiment [2] (0.2 ppm AI, larvae), 100%. Moreover, the pest or weed control at 0.00625 ppm in experiment [3] (Lambda Cyhalothrin alone 0.00625 ppm AI) and in experiment [3] (single compound at 0.00625 ppm AI) was 0% in each case. Further, the pest or weed control at 0.0125 ppm in experiment [3] (Lambda Cyhalothrin alone 0.0125 ppm AI) and in experiment [3] (single compound at 0.0125 ppm AI) was 0% throughout. Moreover, the pest or weed control at 0.025 ppm in experiment [3] (Lambda Cyhalothrin alone 0.025 ppm AI) and in experiment [3] (setting [5]) was 0% each time. Moreover, the pest or weed control at 0.05 ppm in experiment [3] (Lambda Cyhalothrin alone 0.05 ppm AI) and in experiment [3] (single compound at 0.05 ppm AI) was 0% each time. Moreover, the pest or weed control at 0.1 ppm in experiment [3] (Lambda Cyhalothrin alone 0.1 ppm AI) and in experiment [3] (single compound at 0.1 ppm AI) was 25% each time. Further, the pest or weed control at 0.2 ppm in experiment [3] (Lambda Cyhalothrin alone 0.2 ppm AI) and in experiment [3] (single compound at 0.2 ppm AI) was 75% in each case. In addition, the “AVERAGE DEAD IN % AFTER 1 DAY” value is 70% in experiment [4] (3.125 ppm alone); 90% in experiment [4] (6.25 ppm alone); 83% in experiment [4] (12.5 ppm alone); 25% in experiment [4] (Lambda Cyhalothrin alone 3.125 ppm AI); 55% in experiment [4] (Lambda Cyhalothrin alone 6.25 ppm AI); 88% in experiment [4] (Lambda Cyhalothrin alone 12.5 ppm AI). Further, the “AVERAGE DEAD IN % AFTER 8 DAYS” value in experiment [4] (6.25 ppm alone) is 85% and 90%; in experiment [4] (12.5 ppm alone), 98% and 90%.

`CCOP(=S)(OCC)Oc1nc(Cl)c(Cl)cc1Cl` [Chlorpyriphos, chlorpyrifos]: the “AVERAGE DEAD IN % AFTER 5 DAYS” value in experiment [1] (12.5 PPM AI) was 10% and 7%; in experiment [1] (25 PPM AI), 17% and 10%; in experiment [1] (50 PPM AI), 30% and 20%. Also, the activity on eggs result in experiment [2] was “inactive”. In addition, the “AVERAGE DEAD IN % (LARVAE)” value is recorded as 0% in experiment [2] (50 ppm AI, larvae); 0% in experiment [2] (100 ppm AI, larvae); 30% in experiment [2] (200 ppm AI, larvae). The pest or weed control at 25 ppm in experiment [3] (single compound at 25 ppm AI) was found to be 45%. In addition, in experiment [3] (single compound at 50 ppm AI), the pest or weed control at 50 ppm is 90%. Also, the pest or weed control at 100 ppm in experiment [3] (single compound at 100 ppm AI) was determined as 100%. The pest or weed control at 200 ppm in experiment [3] (single compound at 200 ppm AI) turned out to be 100%. In experiment [3] (single compound at 400 ppm AI), the pest or weed control at 400 ppm came out at 100%. For the same compound, the pest or weed control at 800 ppm in experiment [3] (single compound at 800 ppm AI) was determined as 100%. Moreover, the “AVERAGE DEAD IN % AFTER 8 DAYS” value is on record as 0% in experiment [4] (50 ppm alone), 20% in experiment [4] (100 ppm alone) and 63% in experiment [4] (200 ppm alone). Besides, the “AVERAGE DEAD IN % AFTER 1 DAY” value stood at 0% in experiment [4] (Chlorpyrifos alone 50 ppm AI), 60% in experiment [4] (Chlorpyrifos alone 100 ppm AI) and 88% in experiment [4] (Chlorpyrifos alone 200 ppm AI).

Take `CNC(=O)c1cc(C#N)cc(C)c1NC(=O)c1cc(Br)nn1-c1ncccc1Cl` [Cyantraniliprole, cyantraniliprole]: the “AVERAGE DEAD IN % AFTER 5 DAYS” value was 23% in experiment [1] (0.0125 PPM AI); 27% and 30% in experiment [1] (0.025 PPM AI); 40% and 50% in experiment [1] (0.05 PPM AI). The activity on eggs result in experiment [2] was “inactive”. Moreover, the “AVERAGE DEAD IN % (LARVAE)” value is 23% in experiment [2] (0.2 ppm AI, larvae); 70% and 63% in experiment [2] (0.4 ppm AI, larvae); 82% and 72% in experiment [2] (0.8 ppm AI, larvae). Also, the pest or weed control at 0.025 ppm in experiment [3] (Cyantraniliprole alone 0.025 ppm AI) and in experiment [3] (setting [5]) was 0% in each case. In addition, the pest or weed control at 0.05 ppm in experiment [3] (Cyantraniliprole alone 0.05 ppm AI) and in experiment [3] (single compound at 0.05 ppm AI) was 0% throughout. In addition, the pest or weed control at 0.1 ppm in experiment [3] (Cyantraniliprole alone 0.1 ppm AI) and in experiment [3] (single compound at 0.1 ppm AI) was 45% in each case. Further, the pest or weed control at 0.2 ppm in experiment [3] (Cyantraniliprole alone 0.2 ppm AI) and in experiment [3] (single compound at 0.2 ppm AI) was 78% each time. The pest or weed control at 0.4 ppm in experiment [3] (Cyantraniliprole alone 0.4 ppm AI) and in experiment [3] (single compound at 0.4 ppm AI) was 90% in each case. Also, the pest or weed control at 0.8 ppm in experiment [3] (Cyantraniliprole alone 0.8 ppm AI) and in experiment [3] (single compound at 0.8 ppm AI) was 100% each time. Further, the figures for the “AVERAGE DEAD IN % AFTER 8 DAYS” value in experiment [4] (100 ppm alone) and in experiment [4] (200 ppm alone) were 35% and 25%, respectively. The “AVERAGE DEAD IN % AFTER 1 DAY” value worked out at 0% in experiment [4] (Cyantraniliprole alone 100 ppm AI) and 10% in experiment [4] (Cyantraniliprole alone 200 ppm AI).

On to `CC1=NNC(=O)N(/N=C/c2cccnc2)C1` [Pymetrozine, pymetrozine], for which the “AVERAGE DEAD IN % AFTER 5 DAYS” value was 17% and 7% in experiment [1] (100 PPM AI); 7% in experiment [1] (100 ppm AI); 20% and 17% in experiment [1] (200 PPM AI); 17% in experiment [1] (200 ppm AI). The activity on eggs result in experiment [2] is “inactive”. In addition, the “AVERAGE DEAD IN % (LARVAE)” value in experiment [2] (100 ppm AI, larvae) came out at 0%; in experiment [2] (200 PPM AI) it was 37%; in experiment [2] (200 ppm AI, larvae), 40%. The pest or weed control at 25 ppm in experiment [3] (Pymetrozine alone 25 ppm AI) and in experiment [3] (single compound at 25 ppm AI) was 0% throughout. In addition, the pest or weed control at 50 ppm in experiment [3] (Pymetrozine alone 50 ppm AI) and in experiment [3] (single compound at 50 ppm AI) was 0% throughout. Besides, the pest or weed control at 100 ppm in experiment [3] (Pymetrozine alone 100 ppm AI) and in experiment [3] (single compound at 100 ppm AI) was 0% in each case. In addition, the pest or weed control at 200 ppm in experiment [3] (Pymetrozine alone 200 ppm AI) and in experiment [3] (single compound at 200 ppm AI) was 0% throughout. The pest or weed control at 400 ppm in experiment [3] (Pymetrozine alone 400 ppm AI) and in experiment [3] (single compound at 400 ppm AI) was 0% in each case. Also, the pest or weed control at 800 ppm in experiment [3] (Pymetrozine alone 800 ppm AI) and in experiment [3] (single compound at 800 ppm AI) was 0% in each case. Besides, in experiment [4] (200 ppm alone), the “AVERAGE DEAD IN % AFTER 8 DAYS” value is 0%. Moreover, the “AVERAGE DEAD IN % AFTER 1 DAY” value in experiment [4] (Pymetrozine alone 200 ppm AI) is recorded as 5%.
